Earlier results as cited in paper PMC3350394, “Kinetic analysis and test-retest variability of the radioligand [^11C](R)-PK11195 binding to TSPO in the human brain - a PET study in control subjects” (EJNMMI Research, 2012).

Design: method as in PMID 19050880, PMID 16039131
Details: cited from earlier work

Structure (SMILES): CC[C@@H](C)N([11CH3])C(=O)c1cc2ccccc2c(-c2ccccc2Cl)n1 [[^11C](R)-PK11195]
- log P: 1.4 to 3.4
